Consider two molecules from patent US12084411B2, “Hinokitiol analogues, methods of preparing and pharmaceutical compositions thereof” (The Board of Trustees of the University of Illinois, priority 2018, dated 2024).

For one data set, the system named is Caco-2. Description: WST-8 toxicity in Caco-2 cells. (Tetrazolium dyes change colour on reduction, which living cells bring about.)
Another data set concerns J774 macrophages. Description: Temporal imaging of cytosolic iron levels in J774 macrophages. Type of data set: cell-based, mouse. Conditions: for calcein green fluorescence after reversal of the gradient: external FeCl3 100 μM at t=12 min; for calcein green fluorescence after small molecule addition: iron-loaded cells, 100 μM small molecule at t=5 min. The protocol:
To assess for the capacity for hinokitiol to reversibly and autonomously transport iron across the plasma membrane through the creation of artificial iron gradients, J774 macrophages were grown in Ibidi dishes (Ibidi NC0723624) to ˜80% confluency before incubation with J774 Complete media containing 5 mM ascorbic acid and 200 μM FeSO4. The cells were incubated for 1.5 hours, media was aspirated, and the cells were rinsed with PBS. The cells were then incubated with calcein green-AM (1 μM) in DMEM for 20 minutes at 37° C. The media was aspirated and cells were rinsed (×2) with PBS before DMEM (pH=7.4 in 10 mM HEPES) and 1 mM probenecid (Sigma P8761) was added. Calcein green fluorescence was then imaged on a LSM880 microscope at 37° C. with 5% CO2 at the indicated time points for 30 minutes. Hinokitiol (100 μM final concentration), C2deOHino (100 μM final concentration), or DMSO (all from 1000X stocks in 50 μL DMEM) were added at 5 minutes, and a solution of FeCl3 (100 μM final concentration, in 50 μL DMEM) was added at 12 minutes. Fluorescence in each image at each time point was analyzed by ImageJ analysis then normalized to the fluorescence at t=0 for each image using >100 cells per experiment.

Data set [1] deals with Alas2-deficient sauternes zebrafish. The data set can be described thus: Hemoglobinization in Alas2-deficient sauternes zebrafish. Type of data set: in vivo, Danio rerio. Conditions: heterozygous cross of +/sau fish, 1 μM, 48 hours. As to the method:
(§1) Either mutant or morphant embryos were allowed to develop to >24 hours post fertilization (hpf), then dechorionated with pronase as previously described (81). The dechorionated embryos or morphants were then incubated in the presence of 1 μM hinokitiol (or vehicle) and 10 μM iron (III) citrate for an additional forty-eight hours. Vehicle treated embryos were exposed to […]. C2deOHino (1 μM) with iron (III) citrate (10 μM) was used as a negative control. Control and either mutant or morphant embryos at ˜72 hpf were either (a) directly stained by o-dianisidine (79) or (b) mechanically homogenized as previously described for flow cytometry (75, 78).

Data set [2] deals with DMT1-deficient Belgrade (b/b) rats. The data set can be described thus: 59Fe gut absorption in Belgrade rats. It is filed as in vivo. Conditions: 1.5 mg/kg, oral gavage. The protocol:
^59Fe gastrointestinal absorption of iron in 3-5-month-old b/b rats was characterized similar to the procedure described above in the presence of either 6 mM hinokitiol or 6 mM C2deOHino. To compare with the rate of normal iron uptake, age-matched sibling control (+/+ or +/b) Belgrade rats were tested by the same procedure except that ^59Fe was administered without small molecule. Blood (50 μL) was taken from the tail vein at 15, 30, 60, 120, 180, 240, and 360 minutes post administration. Radioactivity was quantified by gamma counting and calculated as the percentage of gavaged dose (±SEM). Animals were humanely euthanized at 6 hours.

The subject of a further data set is DMT1-deficient MEL cells. Description: Differentiation and hemoglobinization of DMT1-deficient MEL cells. Type of data set: cell-based, mouse. Conditions: 1 μM, three days. The protocol: Differentiation of MEL Cells with DMSO (FIG. 3D) To perform differentiation experiments with MEL cells (39), the indicated MEL cells were diluted to 1×10^5 cells/mL in MEL Complete media containing 10 μM iron (III) citrate and 2% DMSO in the absence or presence of 1 μM hinokitiol or C2deOHino (added from 1000X stock in DMSO) in 12-well plates. Cells were then incubated at 37° C. for 72 hours unless otherwise noted.
Hemoglobinized MEL cells were quantified three days after DMSO induction through o-dianisidine staining similar to previously reported (74). Cells were centrifuged three days after induction and rinsed with PBS. The cells were then suspended in a solution containing 7.5 mM o-dianisidine, 900 mM H2O2, and 150 mM acetic acid in water at ˜1×10^6 cells/mL. Cells were then imaged on an AXIO Zoom V16 microscope to obtain color images. The number of stained cells were then quantified via ImageJ analysis and compared to the number of total cells in each image. To determine that hinokitiol requires DMSO induction for hemoglobinization, 2% DMSO was not added at the beginning of the experiment before a 72-hour incubation and o-dianisidine staining.
MEL cells were induced for differentiation as described above and incubated at 37° C. for 70 hours before addition of a saturated iron-transferrin (^55Fe2Tf) solution (40 nM final concentration from a 10 μM ^55Fe2Tf stock). The cells were incubated for an additional two hours. After completion, the cells were counted with a hemocytometer, the media was removed after centrifugation, the cells were rinsed with PBS (×3), and the cell suspension was diluted in scintillation cocktail and radioactivity was determined. […] The cells were incubated for an additional eight hours. After completion, the cells were counted with a hemocytometer, the media was removed after centrifugation, and the cells were rinsed with PBS (×3). The cells were then lysed with RIPA buffer, diluted with water, and heme was extracted using a 3:1 ethyl acetate:acetic acid solution. An aliquot of the organic extract was diluted in scintillation cocktail and radioactivity was determined. Radioactive levels were normalized per cell (counted by hemocytometer) relative to wild type (DS19) levels.
MEL cells were induced for differentiation as described above and incubated at 37° C. for 72 hours. After completion, the cells were counted with a hemocytometer, the media was removed after centrifugation, and cells were rinsed with PBS (×2). The cells were then lysed through repeated freeze/thaw cycles with water, and hemoglobin levels per 10^6 cells were determined as previously described (77) by determining the OD415 after centrifugation. Globin levels by western blot were determined after differentiation as described above. After incubation for 72 hours, cells were lysed and globin levels were determined by western blot as described above.

For another data set, the system named is DMT1-deficient zebrafish. Conditions: two days; for hemoglobinization (GFP-positive erythroids): 1 μM in water from 24 hpf; for number of fish with high hemoglobin levels (o-dianisidine): heterozygous cross of +/cdy fish. As to the method: The morpholinos (MOs) were purchased from GeneTools, LLC (Philomath, OR). The sequences of the MO used were as follows: dmt1 MO: 5′-[…]-3′; mfrnl MO: 5′-[…]-3′. Zebrafish embryos at the 1-cell stage were injected with MOs as previously described (72, 78). o-dianisidine staining for hemoglobinized cells in embryos was as previously described (79). Quantification by flow cytometry using fluorescently labeled erythrocytes from the transgenic Tg(globinLCR:eGFP) line (50) was performed as previously described (72, 75). Semi-quantitative RT-PCR of dmt1 mRNA in morphants was performed using custom designed probes as previously described (80). The sequences of the dmt1 primers are as follows: 5′-[…]-3′ (Fwd); 5′-[…]-3′ (Rev). The sequences of the control actb primers were as follows: 5′-[…]-3′ (Fwd); 5′-[…]-3′ (Rev).
as §1

[3] abbreviates: DMT1-deficient morphant zebrafish.

Method for Caco-2: Determination of small molecule-mediated toxicity in Caco-2, MEL, and/or J774 cells was performed according to manufacturer instructions using a WST-8 kit (Cayman Chemical 10010199) similar to previously reported (76) using a 1000× stock of the indicated small molecule in DMSO to give the indicated final concentration.

Take `CC(C)c1cccc(=O)cc1` [C2deOHino, C2-deoxy hinokitiol]: in the data set on Caco-2 (read-out: Toxicity (EC90), Wild Type Caco-2, WST-8 assay after ≥24 hours of incubation), the EC90 was more than 100 µM. Moreover, in the data set on J774 macrophages, the “calcein green fluorescence after reversal of the gradient” value is recorded as “no effect” and the “calcein green fluorescence after small molecule addition” value is listed as “no effect”. Moreover, in data set [1], the hemoglobinization entry was “do not promote hemoglobinization”. The “reduction in 59Fe absorption relative to sibling controls (+/+ or +/b)” value in data set [2] was 2 fold. In the data set with DMT1-deficient MEL cells, the 55Fe uptake result is “no effect”, the 55Fe-heme incorporation result was “no effect” and the hemoglobinization result is recorded as “no effect”. Also, the “hemoglobinization (GFP-positive erythroids)” value in the data set with DMT1-deficient zebrafish (setting [3]) is “no effect”. The “number of fish with high hemoglobin levels (o-dianisidine)” value in the data set on DMT1-deficient zebrafish was “no effect”.

`CC(C)c1cccc(=O)c(O)c1` [hinokitiol]: the observable toxicity result in the data set on Caco-2 (Caco-2 monolayers, hinokitiol 500 nM) is “no observable toxicity”. Further, in the data set on J774 macrophages, the “calcein green fluorescence after reversal of the gradient” value is recorded as “quenching of calcein green fluorescence was observed” and the “calcein green fluorescence after small molecule addition” value is reported as “rapidly increased calcein green fluorescence”. In addition, the hemoglobinization entry in data set [1] was “did not rescue”. Moreover, the hemoglobinization result in data set [1] (listed as Hinokitiol) is on record as “do not promote hemoglobinization”. In data set [2] (after one hour), the gut iron absorption result is recorded as “increased ^55Fe absorption back to control levels”. In the data set with DMT1-deficient MEL cells, the 55Fe uptake result is recorded as “restored”, the 55Fe-heme incorporation entry is recorded as “restored” and the hemoglobinization entry is “restored”. Besides, the “hemoglobinization (GFP-positive erythroids)” value in the data set on DMT1-deficient zebrafish (setting [3]) was “promoted hemoglobinization”. In addition, in the data set with DMT1-deficient zebrafish (DMT1-deficient morphant zebrafish, 1 μM), the observable toxicity result was “without observable toxicity”. In the data set with DMT1-deficient zebrafish, the “number of fish with high hemoglobin levels (o-dianisidine)” value is recorded as “increased the number of fish exhibiting high hemoglobin levels”.

By EC90 is commonly meant the point of the concentration-response curve where the effect stands at 90%.
